# Measurements published in US20230203485A1, “METHODS FOR MODULATING MHC-I EXPRESSION AND IMMUNOTHERAPY USES THEREOF” (Dana-Farber Cancer Institute, Inc., priority 2020, published 2023).
# Test system: class I antigen presentation gene expression in MCC cell lines
# Assay: RNA-seq / DESeq2 differential expression of MCC cell lines at baseline and after IFN-γ stimulation
# Assay type: cell-based, human
# Conditions: 11 MCC cell lines, baseline vs IFNγ; negative LFC = upregulation in IFNγ-treated
# Experimental: FIG. 2A comprises RNA-seq heatmaps of class I antigen presentation gene expression in MCC lines and controls.
# FIG. 2B is a volcano plot of differentially expressed genes (genes below FDR cutoff 0.01 are shown in yellow) between baseline and IFN-γ-treated MCC cell lines. Differential expression analysis was performed using DESeq2, and negative LFC indicates increased expression in +IFN-γ samples. IFN genes are highlighted in red.
# RNA samples were first assessed for quality using the Agilent Bioanalyzer (DV200 metric). One hundred ng of RNA were used as the input for first strand cDNA synthesis using Superscript III reverse transcriptase and Illumina's TruSeq RNA Access Sample Prep Kit. Synthesis of the second strand of cDNA was followed by indexed adapter ligation with UMI (unique molecular index) adaptors. Subsequent PCR amplification enriched for adapted fragments. Amplified libraries were quantified, normalized, pooled, and hybridized with exome targeting oligos. Following hybridization, bead clean-up, elution and PCR was performed to prepare library pools for sequencing on Illumina flowcell lanes. Transcriptomes were sequenced to a coverage of at least 50 million reads in pairs.
# Raw fastq files for fibroblast and keratinocyte control lines were downloaded from SRA using R Bioconductor package SRAdb (Mayakonda et al. (2018) supra; Zhu et al. (2013) BMC Bioinformatics 14 (1): 1-4) using accession codes SRP126422 (4 replicates from control samples ‘NN’) and SRP131347 (6 replicates with condition: control and genotype: control). These fastq files, along with those for the mkl1 and waga cell lines, were aligned using STAR version 2.7.3a (Dobin et al. (2013) Bioinformatics 29 (1): 15-21), using index genome reference file downloaded from ftp.ebi.ac.uk/pub/databases/gencode/Gencode_human/release_19/GRCh37.p13.genome.fa.gz, transcript annotation file downloaded from data.broadinstitute.org/snowman/hg19/star/gencode.v19.annotation.gtf, and with the following options: --twopassMode Basic, --outSAMstrandField intronMotif, --alignIntronMax 1000000, --alignMatesGapMax 1000000, --sjdbScore 2, --outSAMtype BAM Unsorted, --outSAMattributes NH HI NM MD AS XS, --outFilterType BySJout, --outSAMunmapped Within, --genomeLoad NoSharedMemory, --outFilterScoreMinOverLread 0, --outFilterMatchNminOverLread 0, --outFilterMismatchNmax 999, and outFilterMultimapNmax 20. Duplicates were marked with picard MarkDuplicates version 2.22.0-SNAPSHOT.
# RNA-sequencing bam files for MCC tumor and cell line samples were downloaded from the Broad Genomics Firecloud/Terra platform using the Google Cloud Storage command line tool gsutil version 4.5 (github.com/GoogleCloudPlatform/gsutil/).
# Gene counts were obtained from bam files using featureCounts version 2.0.0 (doi.org/10.1093/bioinformatics/btt656). Very lowly expressed genes with average count across samples less than 1 were excluded from analysis. Between-sample distance metrics were computed using the Euclidean distance on the vectors of variance-stabilized counts obtained from the vst function in the DESeq2 R Bioconductor package ([…]; Love et al. (2014) Genome Biology 15 (12): 550).
# Differential expression analysis was carried out between (1) viral positive and viral negative samples (adjusting for cell line or tumor as a covariate), (2) cell line and tumor samples (adjusting for viral status as a covariate), and (3) IFNγ plus and minus samples (adjusting for viral status as a covariate) using the negative binomial GLM Wald test of DESeq2, where significance was assessed using the p-values adjusted for multiple comparisons under default settings. To account for potential global gene expression differences among sample groups, RUVg (Risso et al. (2014) […] 32 (9): 896-902) was used to estimate latent factors of unwanted variation from the list of housekeeping genes downloaded from www.tau.ac.il/˜elieis/HKG/HK_genes.txt. […]
substance,measurement,value
"IFN-y: type II interferon, recombinant human, used to treat MCC cells",log2FoldChange FBXO6 (ENSG00000116663.6),−2.854
same,log2FoldChange FREM3 (ENSG00000183090.5),−4.873
same,log2FoldChange FZD5 (ENSG00000163251.3),−1.098
same,log2FoldChange GBP1 (ENSG00000117228.9),−10.1
same,log2FoldChange GBP1P1 (ENSG00000225492.2),−7.927
same,log2FoldChange GBP2 (ENSG00000162645.8),−6.235
same,log2FoldChange GBP3 (ENSG00000117226.7),−9.215
same,log2FoldChange GBP4 (ENSG00000162654.8),−10.33
same,log2FoldChange GBP5 (ENSG00000154451.10),−5.854
same,log2FoldChange HCP5 (ENSG00000206337.6),−5.131
same,log2FoldChange HELB (ENSG00000127311.5),−1.463
same,log2FoldChange HERC5 (ENSG00000138646.4),−2.156
same,log2FoldChange HERC6 (ENSG00000138642.10),−9.027
same,log2FoldChange HLA-A (ENSG00000206503.7),−3.702
same,log2FoldChange HLA-B (ENSG00000234745.5),−4.921
same,log2FoldChange HLA-C (ENSG00000204525.10),−4.155
same,log2FoldChange HLA-DMA (ENSG00000204257.10),−3.237
same,log2FoldChange HLA-DMB (ENSG00000242574.4),−5.727
same,log2FoldChange HLA-DOA (ENSG00000204252.8),−7.789
same,log2FoldChange HLA-DOB (ENSG00000241106.2),−3.598
same,log2FoldChange HLA-DPA1 (ENSG00000231389.3),−9.303
same,log2FoldChange HLA-DPB1 (ENSG00000223865.6),−7.613
same,log2FoldChange HLA-DQB1 (ENSG00000179344.12),−7.335
same,log2FoldChange HLA-DRA (ENSG00000204287.9),−10.07
same,log2FoldChange HLA-DRB1 (ENSG00000196126.6),−7.278
same,log2FoldChange HLA-DRB5 (ENSG00000198502.5),−5.98
same,log2FoldChange HLA-E (ENSG00000204592.5),−2.608
same,log2FoldChange HLA-F (ENSG00000204642.9),−7.289
same,log2FoldChange HLA-G (ENSG00000204632.7),−3.367
same,log2FoldChange HLA-H (ENSG00000206341.6),−3.883
same,log2FoldChange HLA-J (ENSG00000204622.6),−4.551
same,log2FoldChange HLA-L (ENSG00000243753.1),−2.336
same,log2FoldChange IDO1 (ENSG00000131203.8),−5.825
same,log2FoldChange IFI6 (ENSG00000126709.10),−2.328
same,log2FoldChange IFI16 (ENSG00000163565.14),−5.946
same,log2FoldChange IFI44 (ENSG00000137965.6),−8.954
same,log2FoldChange IFI44L (ENSG00000137959.11),−7.733
same,log2FoldChange IFIH1 (ENSG00000115267.5),−4.034
same,log2FoldChange IFIT1 (ENSG00000185745.8),−3.465
same,log2FoldChange IFIT2 (ENSG00000119922.7),−6.152
same,log2FoldChange IFIT3 (ENSG00000119917.9),−9.398
same,log2FoldChange IFITM1 (ENSG00000185885.11),−8.763
same,log2FoldChange IFITM3 (ENSG00000142089.11),−7.436
same,log2FoldChange IFNB1 (ENSG00000171855.5),−3.53
same,log2FoldChange IL7 (ENSG00000104432.8),−3.753
same,log2FoldChange IL15 (ENSG00000164136.12),−6.781
same,log2FoldChange IL15RA (ENSG00000134470.15),−6.483
same,log2FoldChange IL17RC (ENSG00000163702.14),−1.188
same,log2FoldChange IL18BP (ENSG00000137496.13),−1.497
same,log2FoldChange INPPI (ENSG00000151689.8),−1.931
same,log2FoldChange IRF1 (ENSG00000125347.9),−5.385
same,log2FoldChange IRF2 (ENSG00000168310.6),−1.588
same,log2FoldChange ISG15 (ENSG00000187608.5),−3.824
same,log2FoldChange ITK (ENSG00000113263.8),−4.656
same,log2FoldChange KCNIP4 (ENSG00000185774.10),−2.647
same,log2FoldChange KDR (ENSG00000128052.8),−7.174
same,log2FoldChange KIAA0040 (ENSG00000235750.5),−3.216
same,log2FoldChange LAP3 (ENSG00000002549.8),−1.871
same,log2FoldChange LGALS12 (ENSG00000133317.10),−4.156
same,log2FoldChange LIPT1 (ENSG00000144182.12),−0.5688
same,log2FoldChange LOC154761 (ENSG00000253882.2),−3.161
same,log2FoldChange LY75 (ENSG00000054219.9),−2.87
same,log2FoldChange MAJIN (ENSG00000168070.7),−3.183
same,log2FoldChange MOB3C (ENSG00000142961.10),−1.494
same,log2FoldChange MOV10 (ENSG00000155363.14),−1.652
same,log2FoldChange MTMR9LP (ENSG00000220785.3),−0.5387
same,log2FoldChange NOD1 (ENSG00000106100.6),−1.317
same,log2FoldChange NRIR (ENSG00000225964.1),−3.724
same,log2FoldChange NUB1 (ENSG00000013374.11),−1.521
same,log2FoldChange NUGGC (ENSG00000189233.7),−3.265
same,log2FoldChange OPTN (ENSG00000123240.12),−1.482
same,log2FoldChange PARP3 (ENSG00000041880.10),−1.726
same,log2FoldChange PARP9 (ENSG00000138496.12),−5.112
same,log2FoldChange PARP10 (ENSG00000178685.9),−3.43
same,log2FoldChange PARP12 (ENSG00000059378.8),−2.758
same,log2FoldChange PARP14 (ENSG00000173193.9),−9.512
same,log2FoldChange PARP15 (ENSG00000173200.8),−3.778
same,log2FoldChange PLA2G16 (ENSG00000176485.6),−2.531
